Measured values: the SangsterLogP compilation

Key:
[1] = method code SF-AS, from DOI: 10.2307/3574491, PMID: 940937; conditions: pH 7.4
[2] = not given; remark: listed apart in the source
[3] = not given; remark: listed apart in the source
[4] = not given; remark: listed apart in the source
[5] = not given; remark: listed apart in the source
[6] = not given; remark: listed apart in the source
[7] = not given; remark: listed apart in the source
[8] = not given; remark: listed apart in the source
[9] = not given; remark: listed apart in the source
[10] = method code SF-RC,AS, from DOI: 10.1016/s0022-3565(25)22658-1, PMID: 3367302; conditions: pH 7.4
[11] = method code SF-AS, from DOI: 10.1023/a:1021720128725
[12] = method code SF-RC, from DOI: 10.1007/bf01870888, PMID: 7057454
[13] = method code SF-HPLC, from DOI: 10.1021/js980008v, PMID: 9758683
[14] = method code SF-GLC, from DOI: 10.1080/00032718608066246; conditions: pH 7.0
[15] = not given; remark: listed apart in the source
[16] = pH 2.0
[17] = not given; remark: listed apart in the source

Which logD [1] does the source give for `CCOC(=O)Cn1c(CC)cnc1[N+](=O)[O-]` here?
The logD was 0.

With `Cc1c(C)c2c(c(C)c1O)CCC(C)(COc1ccc(CC3SC(=O)NC3=O)cc1)O2` (centres undefined) as the compound, how does the logP read?
Its logP is 2.7.

For `Nc1c(Cl)c(Cl)nc(C(=O)O)c1Cl`, which logP [2] is on record?
The logP was 1.

Which logP [3] does the source give for `CCCCCC` here?
The logP was 3.9.

With `COc1ccc(/C=C/[N+](=O)[O-])cc1` as the compound, how does the logP [4] read?
Its logP is 2.2.

Which logP [5] does the source give for `CCOP(=S)(OCC)SCSP(=S)(OCC)OCC` here?
The logP was 4.

With `Cn1c(C=O)cnc1[N+](=O)[O-]` as the compound, how does the logD [1] read?
Its logD is -0.1.

For `Cc1ccc(C(=N)c2ccc(C)cc2)cc1`, which logP [6] is on record?
Its logP is 3.71.

With `Cc1cccc(C)c1C(=N)c1ccccc1` as the compound, how does the logP [6] read?
Its logP is 3.53.

Which logP [7] does the source give for `CCN(CC)CCO` here?
Its logP is 0.31.

For `CN(C)C(=O)Nc1ccc(Oc2ccc(Cl)cc2)cc1`, which logP [2] is on record?
The logP was 3.7.

Which logP [8] does the source give for `CCCC(C)C1(CC)C(=O)NC(=S)NC1=O` (centres undefined) here?
Its logP is 2.54.

Which logD [1] does the source give for `COCC(O)Cn1c([N+](=O)[O-])cnc1C` (centres undefined) here?
Its logD is 0.04.

Which logP [5] does the source give for `Cc1ccc(C(=O)O)c(C2=NC(C)(C(C)C)C(=O)N2)c1` (centres undefined) here?
Its logP is 1.54.

For `COP(=S)(CN1C(=O)c2ccccc2C1=O)OC`, which logP [7] is on record?
Its logP is 2.83.

For `CC(C)(C)c1cccc(C(C)(C)C)c1O`, which logP [9] is on record?
The logP was 4.92.

For `Cc1c(F)c(F)c(COC(=O)[C@H]2[C@@H](/C=C(\Cl)C(F)(F)F)C2(C)C)c(F)c1F`, which logP [5] is on record?
Its logP is 6.5.

Which logD [1] does the source give for `O=[N+]([O-])c1nccn1CCO` here?
The logD was -0.51.

Which logD [10] does the source give for `[N-]=[N+]=N[C@H]1C[C@H](n2ccc(=O)[nH]c2=O)O[C@@H]1CO` here?
Its logD is -0.37.

With `COc1ccc(-c2cn3c(=O)c4ncn(COCCO)c4nc3[nH]2)cc1` as the compound, how does the logP [11] read?
The logP was 0.39.

For `NC(N)=O`, which logP [12] is on record?
The logP was -1.54.

Which logP [6] does the source give for `Cc1ccccc1C(=N)c1ccccc1` here?
The logP was 3.21.

Which logP [13] does the source give for `CCC(=O)OCN1C(=O)NC(c2ccccc2)(c2ccccc2)C1=O` here?
Its logP is 3.34.

For `CC(=O)OCCOC(C)=O`, which logP [7] is on record?
The logP was 0.1.

With `Nc1nc2c(nc(Br)n2COCCO)c(=O)[nH]1` as the compound, how does the logP [11] read?
Its logP is -0.26.

Which logD [14] does the source give for `c1ccc2nc3ccccc3cc2c1` here?
Its logD is 3.32.

Which logP [15] does the source give for `O=C(O)c1ccc(O)cc1O` here?
The logP was 1.41.

For `CC(C)(C(=O)O)C(=O)O`, which logP [7] is on record?
The logP was 0.26.

For `Nc1cccc(N)c1`, which logP [7] is on record?
Its logP is 0.

Which logD [16] does the source give for `C/C=C/C=C/C(=O)O` here?
Its logD is 1.64.

With `Cc1cnc([N+](=O)[O-])n1CCO` as the compound, how does the logD [1] read?
The logD was 0.18.

Which logP does the source give for `CO[C@H]1CCC[C@H]2C1=C(C(=O)OC(C)OC(=O)OC1CCCCC1)N1C(=O)[C@H]([C@@H](C)O)[C@@H]21` (some centres undefined) here?
The logP was 3.

For `Nc1c(Cl)cc(Cl)cc1Cl`, which logP [17] is on record?
The logP was 3.42.

With `CCNC(=O)[C@@H](C)OC(=O)Nc1ccccc1` as the compound, how does the logP [2] read?
Its logP is 1.
